≈ marks a conversion by molar mass, not a printed value. Where “and” joins values, the source holds several entries; their conditions need not be identical. Identical values can stand only once. Like-named read-outs stand apart in the source and are kept apart here.
How the values were obtained:
[1] = 4.5 months
Text: A plurality of metered dose inhalers (MDIs) were filled with either the first or second therapeutic formulation. MDIs were stored either upright (Up) or inverted (in). Each MDI comprised a valve and a canister.

[2] = HFA 134a
physchem [3] = conditions: organic solvent or mixture, Mean Drug Solubility (± standard deviation)
physchem [4] = conditions: organic solvent or mixture
[5] = HFA 134a, Metering Valve 1908, 25° C., Up
[6] = HFA 134a, Metering Valve 1908, 40° C. (75% RH), Down
[7] = HFA 134a, Metering Valve 1908, 40° C. (75% RH), Up
[8] = HFA 134a, Metering Valve 1908, Presspart Plasma Coated 14 ml C128, 5° C., Up
[9] = HFA 134a, Metering valve 1904 (with dip tube 1906), 5° C., Up
[10] = HFA 134a, Metering valve 1904 (with dip tube 1906), 40° C. (75% RH), Down
[11] = HFA 134a, Metering valve 1904 (with dip tube 1906), 40° C. (75% RH), Up
[12] = HFA 152a, Metering Valve 1908, 5° C., Up
[13] = HFA 152a, Metering Valve 1908, 25° C., Up
[14] = HFA 152a, Metering Valve 1908, 40° C. (75% RH), Down
[15] = HFA 152a, Metering Valve 1908, 40° C. (75% RH), Up
[16] = HFA 152a, Metering valve 1904 (with dip tube 1906), 40° C. (75% RH), orientation not given
[17] = 0 %(w/w) ethanol, nicotine added 0.169 ± 0.009 %(w/w)
[18] = 14.8 %(w/w) ethanol, nicotine added 0.703 %(w/w)

SMILES: CN1CCC[C@H]1c1cccnc1 [Nicotine, L-Nicotine]
- Nicotine % of 5° C. [1, 5]: 98 % of 5 °C
- Nicotine can content [1, 5]: 23922.695 µg and 23527.533 µg
- Nicotine % of 5° C. [1, 6]: 98 % of 5 °C
- Nicotine can content [1, 6]: 23663.281 µg
- Nicotine % of 5° C. [1, 7]: 97 % of 5 °C
- Nicotine can content [1, 7]: 22809.747 µg and 23785.869 µg
- Nicotine % of 5° C. [1, 8]: 100 % of 5 °C
- Nicotine can content [1, 8]: 24166.562 µg and 24126.474 µg
- Nicotine % of 5° C. [1, 9]: 100 % of 5 °C
- Nicotine can content [1, 9]: 23891.217 µg and 23628.856 µg
- Nicotine % of 5° C. [1, 10]: 97 % of 5 °C
- Nicotine can content [1, 10]: 23102.878 µg and 23079.598 µg
- Nicotine % of 5° C. [1, 11]: 96 % of 5 °C
- Nicotine can content [1, 11]: 22360.125 µg and 23044.004 µg
- Nicotine % of 5° C. [1, 12]: 100 % of 5 °C
- Nicotine can content [1, 12]: 31626.434 µg and 30855.835 µg
- Nicotine % of 5° C. [1, 13]: 100 % of 5 °C
- Nicotine can content [1, 13]: 31592.559 µg and 30786.35 µg
- Nicotine % of 5° C. [1, 14]: 98 % of 5 °C
- Nicotine can content [1, 14]: 30939.368 µg and 30153.5 µg
- Nicotine % of 5° C. [1, 15]: 98 % of 5 °C
- Nicotine can content [1, 15]: 30982.764 µg and 30318.689 µg
- Nicotine % of 5° C. [1, 16]: 97 % of 5 °C
- Nicotine can content [1, 16]: 30395.997 µg and 30048.645 µg
- Solubility in 50:50 mixtures of propellants compared with single propellants (50:50 mixtures of propellants): higher solubility than either propellant alone
- Solubility, equivalent % by mass (HFA 152a): 0.56 % by mass
- Effect of addition of ethanol on solubility [2]: greatly improved
- Detected/Added *100% [2, 17]: 99 ± 11%
- Nicotine Detected in Solution (by HPLC) % (w/w) [2, 17]: 0.168 ± 0.026 % (w/w)
- Nicotine Detected in Solution (by HPLC) μg per 50 μl [2, 17]: 104 ± 15 μg per 50 μl
- Detected/Added *100% [2, 18]: 108 ± 2%
- Nicotine Detected in Solution (by HPLC) % (w/w) [2, 18]: 0.760 ± 0.013 % (w/w)
- Nicotine Detected in Solution (by HPLC) μg per 50 μl [2, 18]: 421 ± 10 μg per 50 μl
- solubility (physchem [3]; 50:50 HFA 134a/HFA 152a): 85.8 ± 3.2 µg/mL (≈ 529 µM)
- solubility (physchem [3]; 50:50 HFA 134a/HFO 1234ze): 62.3 ± 4.4 µg/mL (≈ 384 µM)
- solubility (physchem [3]; HFA 134a): 38.5 ± 1.6 µg/mL (≈ 237 µM)
- solubility (physchem [3]; HFA 152a): 50.8 ± 2.9 µg/mL (≈ 313 µM)
- solubility (physchem [3]; HFA 227ea): 19.8 ± 4.9 µg/mL (≈ 122 µM)
- solubility (physchem [3]; HFO 1234ze): 41.5 ± 0.8 µg/mL (≈ 256 µM)
- solubility (physchem [4]): ≥ 10 µg/mL
